# Measured values taken from US20220169654A1, “New Organic Compounds” (Servier Pharmaceuticals LLC, priority 2020, published 2022).
# Molecular target: T1, MAT2A homodimer (Homo sapiens, UniProt P31153)
# T1 construct: inferred from Ni sepharose purification with imidazole elution; made in house; host or cells: Sf9 insect cells, baculovirus (Bac to Bac, pFASTBAC1)
# Test: MAT2A inhibition (biochemical, liberated phosphate, PiColorLock Gold)
# Conditions: recombinant MAT2A homodimer; IC50 bin with Max Inh.; read-out: Enzyme Inhibition Bin
# Procedure: Mat2A protein was expressed by recombinant baculovirus in SF9 infected cells using the Bac to Bac system cloned into the pFASTBAC1 vector (Invitrogen, Carlsbad, Calif.). Recombinant MAT2A was isolated from the cell lysate of 150 g of infected cells using HP Ni sepharose column chromatography. Recombinant MAT2A homodimer was eluted with 250 and 500 mM imidazole, and fractions containing MAT2A were identified by sodium dodecyl sulfate polyacrylamide gel electrophoresis and pooled.
# For determination of the inhibitory potency of compounds against the MAT2A homodimer, protein was diluted to 4 μg/mL in assay buffer (50 mM Tris, pH 8.0, 50 mM KCl, 15 mM MgCl2, 0.3 mM EDTA, 0.005% [w/v] bovine serum albumin [BSA]). Test compound was prepared in 100% dimethyl sulfoxide (DMSO) at 50× the desired final concentration. A 1 μL volume of compound dilution was added to 40 μL of enzyme dilution and the mixture was allowed to equilibrate for 60 minutes at 25° C. The enzymatic assay was initiated by the addition of 10 μL of substrate mix (500 μM ATP, pH 7.0, 400 μM L-methionine in 1× assay buffer), and the mixture was incubated for a further 60 minutes at 25° C. The reaction was halted and the liberated phosphate released by the enzyme in stoichiometric amounts by the production of S-adenosyl methionine (SAM) was measured using the PiColorLock Gold kit (Innova Biosciences, UK). Absolute product amounts were determined by comparison to a standard curve of potassium phosphate buffer, pH 8.0. The compounds were also tested in a secondary assay utilizing 1 μg/mL MAT2A and incubated for 5 hours at 25° C. before halting and processing as above.
# Specific compounds disclosed herein were tested in the foregoing assay and they were determined to inhibit MAT2A with an IC50. See, Table 1 below.
# T1 sequence (P31153 whole entry): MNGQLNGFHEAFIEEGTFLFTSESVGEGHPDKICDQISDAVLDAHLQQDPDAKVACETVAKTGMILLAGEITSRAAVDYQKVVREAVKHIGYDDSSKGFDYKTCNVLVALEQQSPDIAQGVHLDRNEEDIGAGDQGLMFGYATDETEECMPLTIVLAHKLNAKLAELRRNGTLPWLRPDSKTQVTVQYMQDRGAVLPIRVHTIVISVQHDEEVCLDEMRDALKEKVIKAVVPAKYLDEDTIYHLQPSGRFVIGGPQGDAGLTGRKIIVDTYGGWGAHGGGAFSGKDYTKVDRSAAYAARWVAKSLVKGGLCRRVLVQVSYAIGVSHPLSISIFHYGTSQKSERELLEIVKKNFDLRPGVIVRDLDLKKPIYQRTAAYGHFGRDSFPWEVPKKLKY
row,Structure (SMILES),IC50
1,"CC(C)Cn1cc(C#N)c2nn(-c3ccc4nn(C)cc4c3)c(=O)c(-c3ccc(C4CC4)nc3)c21 [Example 121, 4-(6-cyclopropylpyridin-3-yl)-5-isobutyl-2-(2-methyl-2H-indazol-5-yl)-3-oxo-3,5-dihydro-2H-pyrrolo[3,2-c]pyridazine-7-carbonitrile]",< 1 µM
2,"Cn1cc2cc(-n3nc4ccn(CC5CC5)c4c(-c4cncc(C(F)(F)F)c4)c3=O)ccc2n1 [Example 125, 5-(cyclopropylmethyl)-2-(2-methyl-2H-indazol-5-yl)-4-(5-(trifluoromethyl)pyridin-3-yl)-2,5-dihydro-3H-pyrrolo[3,2-c]pyridazin-3-one]",> 10 µM
3,"CC(C)n1cc(C#N)c2nn(-c3ccc4nn(C)cc4c3)c(=O)c(-c3ccc(C4CC4)nc3)c21 [Example 146, 4-(6-cyclopropylpyridin-3-yl)-5-isopropyl-2-(2-methyl-2H-indazol-5-yl)-3-oxo-3,5-dihydro-2H-pyrrolo[3,2-c]pyridazine-7-carbonitrile]",< 1 µM
4,"CNS(=O)(=O)c1cn(CC2CC2)c2c(-c3ccc(C4CC4)cc3)c(=O)n(-c3ccc4nn(C)cc4c3)nc12 [Example 179, 5-(cyclopropylmethyl)-4-(4-cyclopropylphenyl)-N-methyl-2-(2-methyl-2H-indazol-5-yl)-3-oxo-3,5-dihydro-2H-pyrrolo[3,2-c]pyridazine-7-sulfonamide]",> 10 µM
5,"CNS(=O)(=O)c1cn(CC2CC2)c2c(-c3ccc(C)nc3)c(=O)n(-c3ccc4nn(C)cc4c3)nc12 [Example 182, 5-(cyclopropylmethyl)-N-methyl-2-(2-methyl-2H-indazol-5-yl)-4-(6-methylpyridin-3-yl)-3-oxo-3,5-dihydro-2H-pyrrolo[3,2-c]pyridazine-7-sulfonamide]",> 10 µM
6,"CNS(=O)(=O)c1cn(CC2CC2)c2c(-c3ccc(OC(F)F)cc3)c(=O)n(-c3ccc4nn(C)cc4c3)nc12 [Example 183, 5-(cyclopropylmethyl)-4-(4-(difluoromethoxy)phenyl)-N-methyl-2-(2-methyl-2H-indazol-5-yl)-3-oxo-3,5-dihydro-2H-pyrrolo[3,2-c]pyridazine-7-sulfonamide]",> 10 µM
7,"Cn1cc2cc(-n3nc4c(S(C)(=O)=O)cn(CC5CC5)c4c(-c4ccc(C5CC5)cc4)c3=O)ccc2n1 [Example 262, 5-(cyclopropylmethyl)-4-(4-cyclopropylphenyl)-2-(2-methyl-2H-indazol-5-yl)-7-(methylsulfonyl)-2,5-dihydro-3H-pyrrolo[3,2-c]pyridazin-3-one]",< 1 µM
8,"Cc1ccc(-c2c(=O)n(-c3ccc4nn(C)cc4c3)nc3c(C#N)c(C)n(CC4CC4)c23)cn1 [Example 266, 5-(cyclopropylmethyl)-6-methyl-2-(2-methyl-2H-indazol-5-yl)-4-(6-methylpyridin-3-yl)-3-oxo-2H,3H,5H-pyrrolopyridazine-7-carbonitrile]",> 10 µM
9,"Cn1cc2cc(-n3nc4c(c(CC5CC5)cn4C)c(-c4ccc(OC(F)F)cc4)c3=O)ccc2n1 [Example 272, 5-(cyclopropylmethyl)-4-(4-(difluoromethoxy)phenyl)-7-methyl-2-(2-methyl-2H-indazol-5-yl)-2,7-dihydro-3H-pyrrolo[2,3-c]pyridazin-3-one]",< 0.1 µM

# Next, values leading:
row,IC50,Structure (SMILES)
1,< 1 µM,"Cn1cc2cc(-n3nc4ccn(CC5CC5)c4c(-c4cncc(Cl)c4)c3=O)ccc2n1 [Example 126, 4-(5-chloropyridin-3-yl)-5-(cyclopropylmethyl)-2-(2-methyl-2H-indazol-5-yl)-2,5-dihydro-3H-pyrrolo[3,2-c]pyridazin-3-one]"
2,< 1 µM,"CN(C)C(=O)c1cn(CC2CC2)c2c(-c3ccc(C4CC4)nc3)c(=O)n(-c3ccc4nn(C)cc4c3)nc12 [Example 164, 5-(cyclopropylmethyl)-4-(6-cyclopropylpyridin-3-yl)-N,N-dimethyl-2-(2-methyl-2H-indazol-5-yl)-3-oxo-3,5-dihydro-2H-pyrrolo[3,2-c]pyridazine-7-carboxamide]"
3,> 10 µM,"CNS(=O)(=O)c1cn(CC2CC2)c2c(-c3ccc(C4CC4)nc3)c(=O)n(-c3ccc4nn(C)cc4c3)nc12 [Example 181, 5-(cyclopropylmethyl)-4-(6-cyclopropylpyridin-3-yl)-N-methyl-2-(2-methyl-2H-indazol-5-yl)-3-oxo-3,5-dihydro-2H-pyrrolo[3,2-c]pyridazine-7-sulfonamide]"
4,> 10 µM,"CN1CC=C(n2nc3ccn(CC4CC4)c3c(-c3ccc(C4CC4)nc3)c2=O)CC1 [Example 232, 5-(cyclopropylmethyl)-4-(6-cyclopropylpyridin-3-yl)-2-(1-methyl-1,2,3,6-tetrahydropyridin-4-yl)-2,5-dihydro-3H-pyrrolo[3,2-c]pyridazin-3-one]"
5,< 1 µM,"Cn1cc2cc(-n3nc4c(S(C)(=O)=O)cn(CC5CC5)c4c(-c4ccc(C5CC5)nc4)c3=O)ccc2n1 [Example 261, 5-(cyclopropylmethyl)-4-(6-cyclopropylpyridin-3-yl)-2-(2-methyl-2H-indazol-5-yl)-7-(methylsulfonyl)-2,5-dihydro-3H-pyrrolo[3,2-c]pyridazin-3-one]"
6,> 10 µM,"Cc1c(C#N)c2nn(-c3ccc4nn(C)cc4c3)c(=O)c(-c3ccc(C4CC4)nc3)c2n1CC1CC1 [Example 265, 5-(cyclopropylmethyl)-4-(6-cyclopropylpyridin-3-yl)-6-methyl-2-(2-methyl-2H-indazol-5-yl)-3-oxo-2H,3H,5H-pyrrolopyridazine-7-carbonitrile]"
